Legend:
[1] = tested on: Microvascular Endothelial Cells (MVEC); assay: MTT growth inhibition of MVEC; type: cell-based; settings: Endothelial cell, 96 h, 4 days culture with drug, read-out: IG50 on inhibiting growth of MVEC
Experimental: In Vitro Anti-Tumor Activity Test
Put cell suspension into centrifugal tubes with a pipette under sterile conditions, then the cell suspension was centrifuged for 3 minutes at 1300 rpm. Discarded the supernatant lightly and added fresh culture medium. Mixed the cells by pipetting, then transferred the cells into culture flasks, and put them into the CO2 incubator. Changed the culture medium once after 24 hours.
Human prostate cancer cells (DU145, PC-3) were cultured in a medium containing RPMI1640 basic medium supplemented with 10% heat-inactivated FBS, 100 IU/mL penicillin, 100 μg/mL streptomycin and 1 mmol/L L-glutamine. Human breast carcinoma cells (T47D, MDA-MB231) were cultured in a medium containing RPM11640 basic medium supplemented with 10% heat-inactivated FBS, 5 μg/mL insulin, 100 IU/mL penicillin, 100 μg/mL streptomycin and 1 mmol/L L-glutamine. Human breast carcinoma cells (MCF-7) were cultured in a medium containing DMEM basic medium supplemented with 10% heat-inactivated FBS, 5 μg/mL insulin, 100 IU/mL penicillin, 100 μg/mL streptomycin and […]. Murine Lewis lung cancer cells (LL/2), murine melanoma cells (B16FD) and Microvascular Endothelial Cells (MVEC) were cultured in a medium containing DMEM basic medium supplemented with 10% heat-inactivated FBS, 4.5 g/L glucose, 1.5 g/L NaHCO3, 100 IU/mL penicillin, 100 μg/mL streptomycin and 4 mmol/L L-glutamine. All these cell lines were incubated at 37° C. biochemical incubator with 5% CO2 saturated humidity.
After resuscitation, the cells were passed for 2-3 generations till they became stable, then they were used for the experiments. Each passage was based on the standard that all cells were spread over the bottoms of culture flasks.
Cells were digested off from the bottoms of culture flasks with trypsin (0.25%). The cell dissociation buffer was transferred into centrifuge tubes, added medium to stop the digestion, and centrifuged for 3 minutes at 1300 rpm. Discarded the supernatant lightly and added fresh culture medium (5 mL). Mixed the cells by pipetting, then added 10 μL of the cell suspension into the cell counting plate, and adjusted the cell concentration to 2×10^4 cells/mL. Added 100 μL of the cell suspension to all wells on the 96 well plates, except A1 well as the blank control. Put the plates into the biochemical incubator for 24 hours and to make sure the cells grew along the walls.
The drugs were dissolved in 80 mmol/L DMSO first, and then diluted the drugs with ethanol to 8 mmol/L. The solution was further diluted with the culture medium to different concentrations as 160 μmol/L, 120 μmol/L, 80 μmol/L, 40 μmol/L, 20 μmol/L and 10 μmol/L. Added 100 μL of the drug solution to each well on the 96 well plates. Therefore, the final concentrations of the drugs that were added to the cells were 80 μmol/L, 40 μmol/L, 20 μmol/L, 10 μmol/L and 5 μmol/L, and each concentration were repeated in three parallel wells. Put the culture plates into the biochemical incubator to culture continuously for 4 days.
Added 50 μL MTT liquids (2 mg/mL) into each well, put the culture plates into the biochemical incubator for 4 h, discarded MTT liquids (TCC), added 200 μL DMSO, then oscillated for 10 minutes on the magnetic oscillator to make sure that the survived cells and the reaction product of MTT were fully dissolved. Detected and recorded the absorbance (OD) values of each well at the wavelength of 570 nm using the microplate reader. The OD values of cells without tested drugs were used as control. The cell growth inhibition rates under each drug concentration were calculated by the following formula. […] Inhibition rate of growth(%)=(1−The absorbance(OD)of cells with tested drugs/The absorbance(OD)of the blank control group)×100%
The absorbance (OD) of cells with tested drugs: OD value is measured with the test drugs.
The absorbance (OD) of the blank control group: OD value is measured without the test drugs. […]

[2] = tested on: Rat aortic ring; assay: Rat Aortic Ring Assay; type: cell-based; settings: for Rat Aortic Ring Assay (10 ug/ml), result in words: observed on the sixth day; for inhibition at 10 µg/mL: Rattus norvegicus, 10 ug/ml, compared with blank control, sixth day
Description: Rat Aortic Ring Assay • 1) 6 week old SD […] (Sprague Dawley) were selected for the experiments. Cleaned abdominal skin with 75% ethanol to disinfect, and then anesthetized the mice with ether, • 2) Carefully removed the abdominal aortas and transferred the aortas to normal saline. Excessive vascular tissues were carefully removed with scissors. • 3) The aortas were rinsed with normal saline until no blood stain remained. • 4) Sectioned the aortas into one millimeter depth arterial slices with ophthalmological scissors. • 5) Add 50 μL pre-thawed Matrigel to each well of the pre-cooled 96 well cell culture plates, and embedded the ring-shaped mouse aortas in collagen gel. • 6) Incubated for 60 minutes at 37° C. to solidificate the gel. • 7) Added DMEM culture solution containing 10% FBS, along with different concentrations of the selected compounds into the wells and cultured in the incubator. Every compound was repeated in no less than 3 wells. • 8) Replaced with the fresh medium and changed the medicine once on the third day. • 9) Took out the pates on the sixth day, and observed the vascular growth with Microscope (OLYMPUS, DP70, Japan) and took photographs(×100). Randomly chose 3 arterial rings to photograph and calculated the area covered by micro-vascular with Image Pro Plus software. The inhibition rate is calculated as:
[formula] • Evaluation criteria: ⋆inhibition rate[…]; ⋆⋆inhibition rate 60-90%; ⋆⋆⋆inhibition rate>90%.

[3] = molecular target: VEGFR-2 (Homo sapiens, UniProt P35968); assay: VEGFR-2 inhibition rate test (kinase assay kit, colorimetric ELISA); settings: concentration not given
VEGFR-2, sequence (P35968 20-1356): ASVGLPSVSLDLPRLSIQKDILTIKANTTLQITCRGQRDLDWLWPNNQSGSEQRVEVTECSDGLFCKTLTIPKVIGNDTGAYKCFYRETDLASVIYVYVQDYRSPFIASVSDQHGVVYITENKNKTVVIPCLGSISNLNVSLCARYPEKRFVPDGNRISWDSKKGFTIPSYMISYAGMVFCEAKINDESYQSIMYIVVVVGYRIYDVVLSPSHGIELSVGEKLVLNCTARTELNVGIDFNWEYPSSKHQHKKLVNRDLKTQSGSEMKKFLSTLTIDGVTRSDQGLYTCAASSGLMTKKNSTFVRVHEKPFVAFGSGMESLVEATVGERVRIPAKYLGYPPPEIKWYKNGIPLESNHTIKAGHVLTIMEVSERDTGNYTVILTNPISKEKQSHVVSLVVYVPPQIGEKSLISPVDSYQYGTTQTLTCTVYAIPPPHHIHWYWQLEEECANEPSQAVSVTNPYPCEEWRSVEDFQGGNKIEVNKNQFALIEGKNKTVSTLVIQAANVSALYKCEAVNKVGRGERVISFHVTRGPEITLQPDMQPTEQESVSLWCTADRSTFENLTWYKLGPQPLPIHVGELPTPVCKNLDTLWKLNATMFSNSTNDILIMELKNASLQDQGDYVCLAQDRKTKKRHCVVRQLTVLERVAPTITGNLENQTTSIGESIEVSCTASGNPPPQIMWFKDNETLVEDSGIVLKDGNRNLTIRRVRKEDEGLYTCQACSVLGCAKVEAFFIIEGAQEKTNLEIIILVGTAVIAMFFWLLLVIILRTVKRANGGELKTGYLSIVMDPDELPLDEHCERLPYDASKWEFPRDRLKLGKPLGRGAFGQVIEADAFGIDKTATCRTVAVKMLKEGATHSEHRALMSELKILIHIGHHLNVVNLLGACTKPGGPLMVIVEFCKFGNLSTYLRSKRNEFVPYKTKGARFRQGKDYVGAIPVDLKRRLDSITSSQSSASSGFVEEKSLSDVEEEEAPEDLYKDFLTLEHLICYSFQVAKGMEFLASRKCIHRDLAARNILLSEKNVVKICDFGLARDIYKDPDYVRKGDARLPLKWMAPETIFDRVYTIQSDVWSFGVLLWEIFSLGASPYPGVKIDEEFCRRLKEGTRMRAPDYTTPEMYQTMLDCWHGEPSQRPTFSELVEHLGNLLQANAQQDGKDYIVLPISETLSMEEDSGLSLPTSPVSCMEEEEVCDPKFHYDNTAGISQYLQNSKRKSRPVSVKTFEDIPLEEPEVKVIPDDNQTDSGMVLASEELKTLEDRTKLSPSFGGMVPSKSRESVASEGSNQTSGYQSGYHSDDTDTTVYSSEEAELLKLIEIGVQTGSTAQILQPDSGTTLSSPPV

Kinase inhibition rate (VEGFR-2) [3]	SMILES	IC50 [1] [µM]	Rat Aortic Ring Assay (10 ug/ml), result in words [2]	inhibition at 10 µg/mL [2] [%]
23.56	Clc1ccc(Nc2nnnc3ncc(Cl)cc23)cc1 [Example 83, 6-chloro-4-(4-chloroanilino)pyrido[3,2][1,2,3]triazine]	10.5	No significant inhibition	
−14.75	COc1cc2c(Nc3cccc(OC(F)(F)F)c3)nnnc2cc1OCCCCl [Example 69, 6-methoxy-7-chloropropoxy-4-(3-trifluoromethoxyanilino)-benzo[d][1,2,3]triazine]	24.9		
−10.15	COc1cc2c(Nc3ccc(Cl)cc3)nnnc2cc1OCCCCl [Example 66, 6-methoxy-7-chloropropoxy-4-(4-chloroanilino)-benzo[d][1,2,3]triazine]	38.6		
−21.65	CCCCCOc1cc2nnnc(Nc3ccc(Cl)c(Cl)c3)c2cc1OC [Example 48, 6-methoxy-7-pentyloxy-4-(3,4-dichloroanilino)-benzo[d][1,2,3]triazine]	16.9		
	Clc1cc(Cl)cc(Nc2nnnc3ccc(Cl)nc23)c1 [Example 80, 6-chloro-4-(3,5-dichloroanilino)pyrido[3,2-d][1,2,3]triazine]	7.93	Almost complete inhibition (10 μg/mL), vascular ring was dead.	
2.40	COc1cc2c(Nc3ccc(F)c(C(F)(F)F)c3)nnnc2cc1OCCCCl [Example 73, 6-methoxy-7-chloropropoxy-4-(3-trifluoromethyl-4-fluoroanilino)-benzo[d][1,2,3]triazine]	15.2		
−9.97	COc1cc2c(Nc3cc(Cl)cc(Cl)c3)nnnc2cc1OCCCCl [Example 63, 6-methoxy-7-chloropropoxy-4-(3,5-dichloroanilino)-benzo[d][1,2,3]triazine]	28.8		
	CCCCCOc1cc2nnnc(Nc3ccc(Cl)cc3)c2cc1OC [Example 49, 6-methoxy-7-pentyloxy-4-(4-chloroanilino)-benzo[d][1,2,3]triazine]	25.3		
	FC(F)(F)Oc1ccc(Nc2nnnc3ccc(Cl)nc23)cc1 [Example 87, 6-chloro-4-(4-trifluoromethoxyanilino)pyrido[3,2-d][1,2,3]triazine]	11.5	Almost complete inhibition (10 μg/mL), vascular ring was dead	
−6.44	Fc1cc(F)cc(Nc2nnnc3ccc(Cl)nc23)c1 [Example 81, 6-chloro-4-(3,5-difluoroanilino)pyrido[3,2-d][1,2,3]triazine]	10.3	Almost complete inhibition (10 μg/mL), vascular ring was dead.	
−0.25	Fc1ccc(Nc2nnnc3ccc(Cl)nc23)cc1Cl [Example 89, 6-chloro-4-(3-chloro-4-fluoroanilino)pyrido[3,2-d][1,2,3]triazine]	9.85		
	CCCCOc1cc2nnnc(Nc3ccc(Cl)c(Cl)c3)c2cc1OC [Example 15, 6-methoxy-7-n-butoxy-4-(3,4-dichloroanilino)-benzo[d][1,2,3]triazine]	15.5		~30
	FC(F)(F)c1ccc(Nc2nnnc3ccc(Cl)nc23)cc1 [Example 85, 6-chloro-4-(4-trifluoromethylanilino)pyrido[3,2-d][1,2,3]triazine]	8.06	No significant inhibition	
	CCOc1cc2nnnc(Nc3ccc(Cl)cc3)c2cc1OC [Example 33, 6-methoxy-7-ethoxy-4-(4-chloroanilino)-benzo[d][1,2,3]triazine]	26.5		
2.39	Clc1cccc(Nc2nnnc3ccc(Cl)nc23)c1 [Example 88, 6-chloro-4-(3-chloroanilino)pyrido[3,2-d][1,2,3]triazine]	12.7	Almost complete inhibition (10 μg/mL), vascular ring was dead	
	Fc1ccccc1Nc1nnnc2ccc(Cl)nc12 [Example 91, 6-chloro-4-(2-fluoroanilino)pyrido[3,2-d][1,2,3]triazine]	10.8	No significant inhibition	
	Fc1cc(Nc2nnnc3ccc(Cl)nc23)ccc1Br [Example 79, 6-chloro-4-(3-fluoro-4-bromoanilino)-pyrido[3,2-d][1,2,3]-triazine]	9.56	Almost complete inhibition (10 μg/mL), vascular ring was dead	
	COc1cc2c(Nc3ccc(C)cc3)nnnc2cc1OCCCCl [Example 77, 6-methoxy-7-chloropropoxy-4-(4-methylanilino)-benzo[d][1,2,3]triazine]	17.1	Micro-vascular growth was significantly inhibited, affecting cell	
	COc1cc2c(Nc3ccc(Cl)c(Cl)c3)nnnc2cc1OCCCCl [Example 65, 6-methoxy-7-chloropropoxy-4-(3,4-dichloroanilino)-benzo[d][1,2,3]triazine]	11		
−3.74	CCCCCOc1cc2nnnc(Nc3ccc(F)c(C(F)(F)F)c3)c2cc1OC [Example 56, 6-methoxy-7-pentyloxy-4-(3-trifluoromethyl-4-fluoroanilino)-benzo[d][1,2,3]triazine]	16.3		
	CCOc1cc2nnnc(Nc3ccc(Cl)c(Cl)c3)c2cc1OC [Example 32, 6-methoxy-7-ethoxy-4-(3,4-dichloroanilino)-benzo[d][1,2,3]triazine]	14.3		
	Clc1ccc2nnnc(Nc3ccc(Cl)c(Cl)c3)c2n1 [Example 82, 6-chloro-4-(3,4-dichloroanilino)pyrido[3,2-d][1,2,3]triazine]	9.19		> 80
−0.53	CCCCCOc1cc2nnnc(Nc3ccc(F)c(Cl)c3)c2cc1OC [Example 55, 6-methoxy-7-pentyloxy-4-(3-chloro-4-fluoroanilino)benzo[d][1,2,3]triazine]	14.8		

SMILES	Kinase inhibition rate (VEGFR-2) [3]	IC50 [1] [µM]	Rat Aortic Ring Assay (10 ug/ml), result in words [2]	inhibition at 10 µg/mL [2] [%]
CCCCOc1cc2nnnc(Nc3cc(Cl)cc(Cl)c3)c2cc1OC [Example 13, 6-methoxy-7-n-butoxy-4-(3,5-dichloroanilino)-benzo[d][1,2,3]triazine]	−9.89	3.17	No significant inhibition	
CCCCOc1cc2nnnc(Nc3cccc(Br)c3)c2cc1OC [Example 25, 6-methoxy-7-n-butoxy-4-(3-bromoanilino)-benzo[d][1,2,3]triazine]	5.61	16.8		

Source: US8349835B2, “Aromatic ring fused triazine derivatives and uses thereof” (Shenyang Pharmaceutical University, priority 2008, dated 2013)
